Patent US7524943B2, “Method for the production of plant seed with modified fiber content and modified seed coat” (National Research Council of Canada, priority 2001, dated 2009)

B1: CJAS1 cDNA: copper chloride-induced cDNA from B. carinata, expressed in antisense orientation from a double 35S promoter (nucleic acid, listed as Brassica carinata)
DNA: ATTGCACCTCTCTCTTTATTCTCTCTCTGCTAATCAACCACTCTCTCTATTTACGTTAGCCGGTAAAAAAATGGTTGAGCAGAAAAAGTTCGCTCTGTTTCTAGCGACTCCTGATTCAGAGTTCGTGAAGAAAGAGTACGGAGGATACCACAACGTGTTCGTGTCCACGTTCGGTGACGAAGGAGAGCATTGGGACTCGTTTAGAGTCGTTGAAGGCGAGTTTCCCGACGAGAAAGATCTTGACAAGTACGACGGTTTCGTTATTAGTGGAAGCTCTCACGATTCCTTCGAGAATGATCCTTGGATCCTTAGGCTATGTGAGATCGTCAAGATACTCGATGAGAAGAAGAAGAAAATTCTTGGCATATGCTTTGGTCACCAGATCATAGCCAGAGTAAGAGGAGGAACAGTGGGAAGAGCAAGGAAGGGACCAGAACTTAAGCTTACAGACATAACCATCGTGAAGGATGCGATTAAACCAGGAAGTTTCTTCGGAAACGAGATTCCGGATAGCATAGCCATCCTAAAGTTACATCAGGACGAAGTGTTAGTGTTGCCTGAATCTGCTAAAGTACTAGCTTATTCAGAAAAGTACGAGGTGGAGATGTTCTCCATTGAGGATCATTTATTCTGTATTCAAGGACATCCCGAGTATAACAGAGAGATTCTCCACGAGATCGTTGATCGTGTTCTTCGTCTTGGCTTCATCAAGGAAGATTTTGCGGATGCGGCAAAAGCCTCGATGGAGAATAGGGGAGCAGACAGGAAACTTTTGGAGACGATTTGCAAGAATTTTCTCAAAGGCAGAGTTCCAGCTAATTAATTAGTTTCACTCCCAAATTATCTATTTGGCTCTTGTTATATTGGAGCTAGCACTTATGGATTTATTATCTTGCTGTATTGTATTCAATATATAACCTATTAATCTCATCCTTGTCAAGGAAACAAAAACTCATATTAATCTCAATGTCATATTTATGTGTTGTTACCCATAAGTAAAATTATTCAATAAAAACTATAGTTTTGCAAAAAAAAAAAAAAAAA

Legend:
CJAS1 gene = CJAS1 gene expression by Northern blot after treatments; type: in vivo, B. carinata; details: treatment of wild-type Brassica plants; data not shown
Text: CJAS1 gene expression was studied via Northern blot of various plant tissues taken from wild-type Brassica plants (data not shown). […] The amount of transcript in flower bud and silique was slightly greater than in the other tissues. […] The rapid response to Cu and MeJA implies a control mechanism sensitive to membrane damage. The activation of CJAS1 transcription by the four different compounds is unusual but not without precedent.

CJAS1 = assay: Inhibitor effects on induction/expression of CJAS1; type: in vivo, B. carinata; details: data not shown; for CJAS1 transcript accumulation: non-induced material
Procedure: The effects of the nitric oxide (NO) scavenger 2-phenyl-4,4,5,5-tetramethylimidazolinone-3-oxide-1-oxyl (PTIO), the protein phosphatase type 1 and 2A inhibitor okadaic acid (OKA), the serine/threonine protein kinases inhibitor staurosporine (STAU) and the protein translation inhibitor cycloheximide (CHX) were determined on induction/expression of CJAS1 in B. carinata.

B. carinata = assay: Visual characterization of seed coat color of transformed B. carinata; type: in vivo
Text: The plant transformation vectors carrying the antisense genes made with the defense-related cDNAs were used for plant transformation. The plant species used for transformation was a selection of B. carinata, the same selection that was originally treated with Copper chloride. This selection of B. carinata has dark-colored, thick seed coats. For transformation, Agrobacterium tumifaciens strain GV3101/pMP90 (C. Koncz and J. Schell, 1986, Mol. Gen. Genet. 204:383-396) was used. The transformation vectors were introduced into the Agrobacterium strain using standard techniques. Plant explants were co-cultured for three days then transferred to selective media. Plants were selected on kanamycin.
Transformed B. carinata were analyzed by visual characterization. […] A sample comparison of seeds obtained from wild-type B. carinata and transgenic B. carinata expressing antisense CJAS1 (SEQ ID NO:1) is shown in FIG. 2a and FIG. 2b.

[1] = tested on: Escherichia coli GMP synthetase mutant ght1; assay: Complementation of Escherichia coli GMP synthetase mutant ght1; type: cell-based; details: cDNA in expression vector
Text: Thus, it is postulated that the protein encodes an amidotransferase activity distinct from GMP synthase that utilizes an aromatic compound for a substrate. This is analogous to a similar step seen for the phenylpropanoid pathway, another pathway that is involved in the formation of fiber (and the seed coat) and is a pathway that utilizes aromatic compounds. In the phenylpropanoid pathway, L-phenyalanine, an aromatic amino acid, is a substrate for the enzyme phenyalanine ammonia lyase (PAL). The enzymatic activity of PAL leads to the formation of cinnamic acid by deamination which eventually leads to the formation of lignin monomers. In the present case, CJAS1 may be a subunit of an enzyme that encodes a […] activity utilized within another secondary metabolite pathway and reduction of the enzyme activity (as evidenced by antisense RNA inhibition of the gene expression) can lead to alteration in the formation of phenolic-related compounds. This alteration may further affect the formation of other compounds in the seed, in particular, compounds that are known to be related to fiber formation.

Row | Molecule | amount of CJAS1 transcript (CJAS1 gene) | CJAS1 transcript accumulation (CJAS1) | other results
1 | CC1=CC(=O)CC(C)(C)C1(O)/C=C/C(C)=C\C(=O)O (stereo not drawn) [ABA] | further increased |  | 
2 | [Cl][Cu][Cl] [Cu, copper chloride] | further increased |  | 
3 | CC/C=C\CC1C(=O)CCC1CC(=O)OC (stereo not drawn) [MeJA] | further increased |  | 
4 | C=C1[C@@H](O)[C@@H]2O[C@]3(CC[C@H](/C=C/[C@@H](C)[C@@H]4CC(C)=C[C@@]5(O[C@H](C[C@@](C)(O)C(=O)O)CC[C@H]5O)O4)O3)CC[C@H]2O[C@@H]1[C@@H](O)C[C@H](C)[C@H]1O[C@@]2(CCCCO2)CC[C@H]1C [OKA, okadaic acid] |  | increased | 
5 | CC1(C)N([O])C(c2ccccc2)=[N+]([O-])C1(C)C [PTIO, 2-phenyl-4,4,5,5-tetramethylimidazolinone-3-oxide-1-oxyl] |  | increased | 
6 | O=C(O)c1ccccc1O [SA] | further increased |  | 
7 | CN[C@@H]1C[C@H]2O[C@@](C)([C@@H]1OC)n1c3ccccc3c3c4c(c5c6ccccc6n2c5c31)C(=O)NC4 [STAU, staurosporine] |  | increased | interaction with MeJA in induction of CJAS1 expression (CJAS1; with MeJA): acted synergistically
8 | C[C@@H]1C[C@@H]([C@H](O)CC2CC(=O)NC(=O)C2)C(=O)[C@@H](C)C1 [cycloheximide] |  | increased | 
9 | B1 |  |  | transformants producing a lighter-colored (yellow) seed (B. carinata; CJAS1 cDNA antisense): over 50%; seed coat color of transformed plants (B. carinata; antisense orientation, 35S promoter, B. carinata): yellow-colored seed coats; complementation of GMP synthetase mutant [1]: no complementation was observed
